Test results: patent publication US8404855B2, “Substituted enaminocarbonyl compounds” (Bayer CropScience AG, priority 2006, dated 2013)

How the values were obtained:
[1] = test system: cotton aphid (Aphis gossypii); assay: Aphis gossypii test (APHIGO), leaf dip; format: in vivo; conditions: cotton leaves dipped
Protocol: (§1) After the desired period of time, the kill in % is determined.

[2] = test system: adult fleas (Ctenocephalides felis); assay: Ctenocephalides felis; oral (CTECFE); format: in vivo; conditions: 100 ppm in citrated cattle blood
Protocol: Part of the concentrate is diluted with citrated cattle blood, and the desired concentration is prepared.
20 unfed adult fleas (Ctenocephalides felis) are placed into a chamber whose top and bottom ends are closed with gauze. A metal cylinder whose bottom end is closed with parafilm is placed onto the chamber. The cylinder contains the blood/active compound preparation, which can be taken up by the fleas through the parafilm membrane. The blood is warmed to 37° C., but the flea chamber is at room temperature.
as §1

[3] = test system: green peach aphid (Myzus persicae); assay: Myzus persicae test, hydroponic treatment (MYZUPE sys.); format: in vivo; conditions: pea plant in treated water
Protocol: The preparation of active compound is mixed with water. The stated concentration refers to the amount of active compound per volume unit of water (mg/l=ppm). The treated water is filled into containers housing a pea plant (Pisum sativum) which is then infected with the green peach aphid (Myzus persicae).
as §1

Boophilus microplus = Boophilus microplus test (BOOPMI injection); format: in vivo; conditions: 20 ppm (so in the source), 100% = no tick has laid fertile eggs, comparison with prior art
Protocol: The solution of active compound is injected into the abdomen (Boophilus microplus), and the animals are transferred into dishes and kept in a temperature-controlled room.
100% means that no tick has laid any fertile eggs.

Meloidogyne incognita = assay: Meloidogyne test (MELGIN spray treatment); format: in vivo; conditions: 20 ppm; gall formation, 100% = no galls; comparison with prior art
Protocol: Containers are filled with sand, active compound solution, Meloidogyne incognita egg/larvae suspension and lettuce seeds. The lettuce seeds germinate and the plants develop. On the roots, galls are formed.
After the desired period of time, the nematicidal activity is determined by the formation of galls in %. 100% means that no galls were found; 0% means that the number of galls on the treated plants corresponds to that of the untreated controls.

[4] = test system: green peach aphid (Myzus persicae); assay: Myzus persicae test (MYZUPE T), leaf dip; format: in vivo; conditions: 20 ppm; cabbage leaves dipped; comparison with prior art
Protocol: as §1

[5] = test system: green peach aphid (Myzus persicae); assay: Myzus test (MYZUPE spray treatment); format: in vivo
Excerpt: In this test, for example, the following compounds of the Preparation Examples show good activity: see table

[6] = test system: larvae of the mustard beetle (Phaedon cochleariae); assay: Phaedon test (PHAECO spray treatment); conditions: 500 g/ha; Chinese cabbage leaf disks sprayed
Lucilia cuprina larvae = assay: Lucilia cuprina test (LUCICU); format: in vivo; conditions: treated horse meat
Protocol: as §1

[7] = test system: green peach aphid (Myzus persicae); assay: Myzus test; oral (MYZUPE O); format: in vivo
[8] = 4 ppm, comparison with prior art
[9] = 0.8 ppm, comparison with prior art
[10] = 500 g/ha, Chinese cabbage leaf disks sprayed

In the case of `O=C1C=C(N(CCF)Cc2ccc(Cl)nc2)CO1` [Example 4, 4-[[(6-Chloropyridin-3-yl)methyl](2-fluoroethyl)amino]furan-2(5H)-one], the “Kill rate in % after 6 days” value [1, 8] is reported as 99%, the “Kill rate in % after 1 day” value ([2]; comparison with prior art) is reported as 30% and the “Kill rate in % after 6 days” value ([3]; 0.16 ppm, comparison with prior art) is reported as 55%. For the same molecule, the “Kill rate in % after 6 days” value [3, 9] was 100%, the “Kill rate in % after 7 days” value (Boophilus microplus) was 100% and the “Kill rate in % after 14 days” value (Meloidogyne incognita) was 70%. For the same molecule, the “Kill rate in % after 6 days” value [4] was 80%.
For `O=C1C=C(N(Cc2ccc(Cl)nc2)CC(F)Cl)CO1` (centres unmarked) [Example 17, 4-[[(6-chloropyridin-3-yl)methyl](2-chloro-2-fluoroethyl)amino]furan-2(5H)-one], the “Kill rate in % after 5 days” value [5, 10] was 100% and the “Kill rate in % after 7 days” value [6] was 100%.
In the case of `O=C1C=C(N(Cc2ccc(F)nc2)CC(F)F)CO1` [Example 15], the “Kill rate in % after 2 days” value (Lucilia cuprina larvae; 100 ppm) is reported as 90%, the “Kill rate in % after 6 days” value ([1]; 100 ppm) is reported as 100% and the “Kill rate in % after 5 days” value [5, 10] is reported as 100%. The “Kill rate in % after 2 days” value [2] was 90%, the “Kill rate in % after 6 days” value ([3]; 4 ppm) was 100% and the “Kill rate in % after 7 days” value [6] was 100%.
`O=C1OCC(N(Cc2ccc(Cl)nc2)CC(F)F)=C1Cl` [Example 8, 3-Chloro-4-[[(6-chloropyridin-3-yl)methyl](2,2-difluoroethyl)amino]furan-2(5H)-one] was tested, and the “Kill rate in % after 2 days” value (Lucilia cuprina larvae; 100 ppm) was 100%, the “Kill rate in % after 6 days” value ([1]; 20 ppm) was 100% and the “Kill rate in % after 5 days” value [5, 10] was 100%. The “Kill rate in % after 6 days” value ([3]; 4 ppm) was 98%.
In the case of `O=C1OCC(N(Cc2ccc(Cl)nc2)CC(F)F)=C1Br` [Example 7, 3-Bromo-4-[[(6-chloropyridin-3-yl)methyl](2,2-difluoroethyl)amino]furan-2(5H)-one], the “Kill rate in % after 5 days” value [5, 10] is reported as 100%.
For “(E/Z)-4-[[(6-Chloropyridin-3-yl)methyl](2-fluorovinyl)amino]-5-methylfuran-2(5H)-one [Example 5]”, the “Kill rate in % after 5 days” value [5, 10] was 100%.
In the case of `CC1OC(=O)C=C1N(Cc1ccc(Cl)nc1)CC(F)F` (centres unmarked) [Example 6, 4-[[(6-Chloropyridin-3-yl)methyl](2,2-difluoroethyl)amino]-5-methylfuran-2(5H)-one], the “Kill rate in % after 5 days” value [5, 10] is reported as 100%.
For `O=C1C=C(N(CCCF)Cc2ccc(Cl)nc2)CO1` [Example 2, 4-[[(6-Chloropyridin-3-yl)methyl](3-fluoro-n-propyl)amino]furan-2(5H)-one], the “Kill rate in % after 5 days” value [5, 10] was 100% and the “Kill rate in % after 5 days” value ([7]; 20 ppm, oral uptake by sucking) was 100%.
In the case of `O=C1C=C(N(Cc2ccc(Cl)nc2)CC(F)F)CO1` [Example 1, 4-[[(6-Chloropyridin-3-yl)methyl](2,2-difluoroethyl)amino]furan-2(5H)-one], the “Kill rate in % after 2 days” value (Lucilia cuprina larvae; [8]) is reported as 100%, the “Kill rate in % after 6 days” value [1, 9] is reported as 60% and the “Kill rate in % after 6 days” value [1, 8] is reported as 98%. The “Kill rate in % after 5 days” value ([5]; 4 g/ha, leaf disks sprayed, comparison with prior art) was 80%, the “Kill rate in % after 6 days” value [3, 9] was 100% and the “Kill rate in % after 5 days” value ([7]; 0.032 ppm, oral, comparison with prior art) was 100%. The “Kill rate in % after 6 days” value [4] was 95%.
With `O=C1C=C(N(CC=C(Cl)Cl)Cc2ccc(Cl)nc2)CO1` [Example 3, 4-[[(6-Chloropyridin-3-yl)methyl](3,3-dichloroprop-2-en-1-yl)amino]furan-2(5H)-one] the “Kill rate in % after 5 days” value [5, 10] was 100%.
